Source: patent US8101642B2, “3-substituted propanamine compounds” (SK Biopharmaceuticals Co., Ltd., priority 2008, dated 2012)

Experiments:
mice [1] = test: Forced swimming test in mice (FST); assay type: in vivo; details: Mus musculus, 0.5 h, 30ip, reduction in duration of immobility vs control group, 30 min after administration
Protocol: Forced swimming Test in Mice (FST)
The Forced swimming test is an animal model based on the rodent's behavioral repertoire for screening drugs with potential antidepressant activity. As in several other models used for this goal, an uncontrollable stress stimulus produces behavioral changes that are sensitive to antidepressant treatment.
The mice were intraperitoneally treated with the test compound with an injection volume of […]. The group treated with 30% PEG400 served as a control group. Thirty minutes following administration, mice were individually forced to swim in a transparent glass vessel (14 cm high, 11.5 cm in diameter) filled with 10 cm of water at 25° C. The total duration of immobility (second) was measured during the last 4 minutes of a single 6-min test session. Mice were considered immobile when they made no further attempts to escape other than the movements necessary to keep their heads above the water. The potent ability of the compounds was determined as percent value of reduction in the duration of immobility comparing to the control group.

[2] = molecular target: T1, human serotonin transporter (Homo sapiens, UniProt P31645); test: Serotonin transporter reuptake inhibition assay ([3H]Serotonin uptake); assay type: cell-based; details: recombinant HEK-293 cells with human serotonin transporter; for inhibition at 0.1 µM: HEK293, 100 nM, read-out: Inhibition % at 100 nM 5-HT reuptake
T1 construct: expressed in transfected cells; host or cells: HEK-293
T1 sequence (P31645 whole entry): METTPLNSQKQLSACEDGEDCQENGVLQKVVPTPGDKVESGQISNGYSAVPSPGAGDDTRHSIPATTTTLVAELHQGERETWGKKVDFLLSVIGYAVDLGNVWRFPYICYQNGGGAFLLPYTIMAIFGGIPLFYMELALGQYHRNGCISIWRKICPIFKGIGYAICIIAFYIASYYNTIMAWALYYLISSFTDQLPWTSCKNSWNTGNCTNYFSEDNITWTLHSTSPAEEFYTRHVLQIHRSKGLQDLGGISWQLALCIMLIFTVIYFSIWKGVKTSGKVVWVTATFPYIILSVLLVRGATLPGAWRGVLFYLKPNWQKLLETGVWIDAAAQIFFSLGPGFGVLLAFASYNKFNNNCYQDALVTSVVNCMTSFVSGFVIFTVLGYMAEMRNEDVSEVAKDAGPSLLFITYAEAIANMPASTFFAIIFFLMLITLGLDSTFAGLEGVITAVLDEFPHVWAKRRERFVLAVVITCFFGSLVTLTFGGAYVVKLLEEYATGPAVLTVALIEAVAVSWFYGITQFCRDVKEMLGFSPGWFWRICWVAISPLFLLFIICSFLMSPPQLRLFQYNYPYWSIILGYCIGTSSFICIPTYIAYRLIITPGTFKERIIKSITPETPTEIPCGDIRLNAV
Protocol: Serotonin Transporter Reuptake Inhibition Assay
The recombinant HEK-293 cells with human serotonin transporter were plated. Test compounds described in table 1 were pre-incubated with cells (2×10^5/ml) in modified Tris-HEPES buffer pH 7.1 for 20 minutes at 25° C. and then they were incubated for additional 10 minutes after 65 nM of [^3H]Serotonin was added. Bound cells were filtered and counted to determine [^3H]Serotonin uptake. Reduction of [^3H]Serotonin uptake by 50 percent or more (≧50%) relative to 10 μM fluoxetine indicates significant inhibitory activity.

[3] = molecular target: T2, human recombinant dopamine transporter (Homo sapiens, UniProt Q01959); test: Dopamine transporter reuptake inhibition assay ([3H]Dopamine uptake); assay type: cell-based; details: CHO-K1 cells with human recombinant dopamine transporter; for inhibition at 0.1 µM: 100 nM, read-out: Inhibition % at 100 nM DA reuptake
T2 construct: expressed in transfected cells; host or cells: CHO-K1
T2 sequence (Q01959 whole entry): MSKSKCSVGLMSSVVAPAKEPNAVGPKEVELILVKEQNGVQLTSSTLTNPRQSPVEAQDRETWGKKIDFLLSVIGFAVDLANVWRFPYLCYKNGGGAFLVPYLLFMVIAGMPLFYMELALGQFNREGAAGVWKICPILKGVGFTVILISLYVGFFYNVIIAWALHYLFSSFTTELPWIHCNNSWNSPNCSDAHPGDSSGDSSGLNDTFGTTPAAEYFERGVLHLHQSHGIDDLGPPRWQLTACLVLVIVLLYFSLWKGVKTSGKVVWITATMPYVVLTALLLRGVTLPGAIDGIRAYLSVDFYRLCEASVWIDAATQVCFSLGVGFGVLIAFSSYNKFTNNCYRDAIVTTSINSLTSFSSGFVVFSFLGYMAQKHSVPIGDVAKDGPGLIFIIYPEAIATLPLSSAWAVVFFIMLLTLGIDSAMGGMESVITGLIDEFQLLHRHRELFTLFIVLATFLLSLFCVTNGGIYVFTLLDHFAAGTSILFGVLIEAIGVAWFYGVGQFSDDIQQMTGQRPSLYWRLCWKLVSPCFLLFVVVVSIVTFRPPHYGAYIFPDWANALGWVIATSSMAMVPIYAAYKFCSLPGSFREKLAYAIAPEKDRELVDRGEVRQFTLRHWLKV
Protocol: Dopamine Transporter Reuptake Inhibition Assay
CHO-K1 cells with human recombinant dopamine transporter were plated. Test compounds were pre-incubated with cells (4×10^5/ml) in modified Tris-HEPES buffer pH 7.1 for 20 minutes at 25° C. and then they were incubated for additional 10 minutes after 50 nM of [^3H]Dopamine was added. A lysate is obtained from solubilized cells and counted to determine [^3H]Dopamine uptake. Reduction of [^3H]Dopamine uptake by 50 percent or more (≧50%) relative to 10 μM nomifensine indicates significant inhibitory activity.

[4] = molecular target: T3, human recombinant norepinephrine transporter (Homo sapiens, UniProt P23975); test: Norepinephrine transporter reuptake inhibition assay ([3H]Norepinephrine uptake); assay type: cell-based; details: for inhibition at 0.1 µM: 100 nM, MDCK cells with human recombinant norepinephrine transporter, read-out: Inhibition % at 100 nM NE reuptake
T3 construct: expressed in transfected cells; host or cells: MDCK
T3 sequence (P23975 whole entry): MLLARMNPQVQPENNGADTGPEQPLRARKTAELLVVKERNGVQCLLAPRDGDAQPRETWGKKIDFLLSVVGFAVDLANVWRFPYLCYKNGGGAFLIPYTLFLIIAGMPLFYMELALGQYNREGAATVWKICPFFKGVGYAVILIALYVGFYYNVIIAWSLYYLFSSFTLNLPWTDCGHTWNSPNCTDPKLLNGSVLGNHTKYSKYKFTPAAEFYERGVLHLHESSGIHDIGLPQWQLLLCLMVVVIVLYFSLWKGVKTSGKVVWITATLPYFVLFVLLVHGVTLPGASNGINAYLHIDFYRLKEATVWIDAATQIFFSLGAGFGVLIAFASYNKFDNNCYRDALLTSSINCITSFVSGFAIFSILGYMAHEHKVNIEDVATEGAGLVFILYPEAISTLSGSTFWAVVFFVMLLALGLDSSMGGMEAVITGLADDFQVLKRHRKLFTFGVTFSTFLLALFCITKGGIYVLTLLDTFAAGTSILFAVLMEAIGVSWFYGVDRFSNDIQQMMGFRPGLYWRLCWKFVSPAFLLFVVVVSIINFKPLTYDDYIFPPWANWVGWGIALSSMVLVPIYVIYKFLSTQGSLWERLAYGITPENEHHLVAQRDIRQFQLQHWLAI
Protocol: Norepinephrine Transporter Reuptake Inhibition Assay
MDCK cells with stably expressed human recombinant norepinephrine transporter were plated one day. Test compounds were pre-incubated with cells (2×10^5/ml) in modified Tris-HEPES buffer pH 7.1 for 20 minutes at 25° C. and then they were incubated for additional 10 minutes after 25 nM of [^3H]Norepinephrine was added. A lysate was obtained from solubilized cells and the filtered lysate was counted to determine [^3H]Norepinephrine uptake. Reduction of [^3H]Norepinephrine uptake by 50 percent or more (≧50%) relative to 10 μM desipramine indicates significant inhibitory activity.

mice [5] = test: Marble burying test; assay type: in vivo; details: reduction in number of marbles buried vs control group, 30 min after treatment
Description: The Marble burying test is a screening tool for putative anxiolytics. In this test, control mice naturally bury glass marbles in the cage bedding and the administration of anxiolytic compounds, including Diazepam, reduces the number of buried marbles. Positive compounds in the marble burying test including selective serotonin reuptake inhibitor may be especially beneficial to obsessive-compulsive disorder.
A group of mice was intraperitoneally treated with test compound dissolved in 30% PEG400 with an injection volume of 10 ml/kg. The group treated with only 30% PEG400 served as a control group. Thirty minutes after the treatment, the animals were individually placed in a polycarbonate cage which was same as used for animal housing with an open top located within a quiet room. Each cage consisted of ⅛ inch corn bedding 5 cm deep. Twenty four clean glass marbles (15 mm diameter) were evenly spaced in four rows of six on top of the bedding. Each mouse was left in the cage for 30 minutes and the number of marbles buried (buried more than ½ or ⅔) was counted. The potent ability of the compounds was determined as percent value of reduction in the number of marbles buried comparing to the control group.

mice [6] = test: Acetic acid induced writhing test (AA writhing test); assay type: in vivo; details: Mus musculus, 0.5 h, 30sc, reduction in number of writhing vs control group, 0.8% acetic acid ip 30 min after compound
Description: Acetic Acid Induced Writhing Test (AA Writhing Test)
The Acetic acid-induced writhing test is a well-established nociceptive test using a chemical stimulus. Although several animal models of nociceptive tests have been developed to examine and compare the anti-nociceptive effects of different drugs, the anti-nociceptive effects of antidepressants appear to be test-dependent. Indeed, the acetic acid-induced writhing test is more sensitive to antidepressants than other tests using thermal, mechanical or electrical stimuli.
The animals were subcutaneously treated with the test compound with an injection volume of 10 ml/kg. The group treated with 30% PEG400 or saline served as a control group. Thirty minutes later, the mice were intraperitoneally treated with 0.8% (v/v) acetic acid. Each mouse was then placed in a cage for individual observation. The writhing numbers for 10 minutes were counted. The writhe is operationally defined as a contraction of the abdomen followed by stretching of the hind limbs. The potent ability of the compounds was determined as percent value of reduction in the number of writhing comparing to the control group.

Compound | inhibition in vivo at 30 mg/kg (mice [1]) [%] | inhibition at 0.1 µM [2] [%] | inhibition at 0.1 µM [3] [%] | inhibition at 0.1 µM [4] [%] | Reduction % at 30ip (mice [5]) [%] | inhibition in vivo at 30 mg/kg (mice [6]) [%] | Inhibition % at 100 nM 5-HT reuptake [2] [%] | Inhibition % at 100 nM DA reuptake [3] [%] | Inhibition % at 100 nM NE reuptake [4] [%] | Reduction % (at 10ip) (mice [5]; 10ip) [%]
CN(C)CCC(c1ccc(Cl)c(Cl)c1)n1ncnn1 (stereo not drawn) [Example 1, [3-(3,4-Dichloro-phenyl)-3-tetrazol-2-yl-propyl]-dimethyl-amine] | 24.9 | 27 | 58 | 37 | 54.8 | 55.3 | – | – | – | –
CNCCC(c1ccc(Cl)c(Cl)c1)n1ncnn1 (stereo not drawn) [Example 2, [3-(3,4-Dichloro-phenyl)-3-tetrazol-2-yl-propyl]-methyl-amine] | 82.4 | – | – | – | 100 | 50.3 | 35 | 48 | 56 | –
CN(C)CCC(c1ccc2ccccc2c1)n1ncnn1 (stereo not drawn) [Example 6, Dimethyl-(3-naphthalen-2-yl-3-tetrazol-2-yl-propyl)-amine] | 41.4 | 41 | 20 | 30 | 87.7 | 60.2 | – | – | – | –
CN(C)CCC(c1ccc2cc(Cl)ccc2c1)n1ncnn1 (stereo not drawn) [Example 14, [3-(6-Chloro-naphthalen-2-yl)-3-tetrazol-2-yl-propyl]-dimethyl-amine] | – | 46 | 18 | 32 | – | – | – | – | – | –
COc1ccc2cc(C(CCN(C)C)n3ncnn3)ccc2c1 (stereo not drawn) [Example 21, [3-(6-Methoxy-naphthalen-2-yl)-3-tetrazol-2-yl-propyl]-dimethyl-amine] | – | 44 | 36 | 39 | – | – | – | – | – | –
CN(C)CCC(c1ccc2cc(F)ccc2c1)n1ncnn1 (stereo not drawn) [Example 50, [3-(6-Fluoro-naphthalen-2-yl)-3-tetrazol-2-yl-propyl]-dimethyl-amine] | 35 | 61 | 7 | 12 | 86.2 | 53.8 | – | – | – | –
Cc1nnn(C(CCN(C)C)c2ccc3cc(F)ccc3c2)n1 (stereo not drawn) [Example 51, [3-(6-Fluoro-naphthalen-2-yl)-3-(5-methyl-tetrazol-2-yl)-propyl]-dimethyl-amine] | 24.5 | 61 | 6 | 10 | 72.4 | 51.4 | – | – | – | –
CNCCC(c1ccc2ccccc2c1)n1ncnn1 (stereo not drawn) [Example 119, Methyl-(3-naphthalen-2-yl-3-tetrazol-2-yl-propyl)-amine] | 43.2 | 78 | 10 | 84 | – | – | – | – | – | –
CNCCC(c1ccc2cc(C)ccc2c1)n1ncnn1 (stereo not drawn) [Example 122, Methyl-[3-(6-methyl-naphthalen-2-yl)-3-tetrazol-2-yl-propyl]-amine] | 43.7 | 93 | 3 | 55 | – | – | – | – | – | –
CNCC[C@@H](c1ccc(Cl)c(Cl)c1)n1nnc(C)n1 [Example 129, (3S)-3-(3,4-dichlorophenyl)-N-methyl-3-(5-methyl-2H-tetrazol-2-yl)propan-1-amine] | 36.7 | 43 | 62 | 84 | 94.3 | 94.4 | – | – | – | –
CNCCC(c1cc2ccccc2cc1OC)n1nnc(C)n1 (stereo not drawn) [Example 135, [3-(3-Methoxy-naphthalen-2-yl)-3-(5-methyl-tetrazol-2-yl)-propyl]-methyl-amine] | – | 47 | -1 | 17 | – | – | – | – | – | –
CNCCC(c1ccc2cc(F)ccc2c1)n1ncnn1 (stereo not drawn) [Example 136, [3-(6-Fluoro-naphthalen-2-yl)-3-tetrazol-2-yl-propyl]-methyl-amine] | – | 59 | 6 | 25 | – | – | – | – | – | –
CNCCC(c1ccc2cc(F)ccc2c1)n1nnc(C)n1 (stereo not drawn) [Example 137, [3-(6-Fluoro-naphthalen-2-yl)-3-(5-methyl-tetrazol-2-yl)-propyl]-methyl-amine] | – | 58 | 10 | 39 | – | – | – | – | – | –
CNCCC(c1ccc2cc(OC)ccc2c1)n1ncnn1 (stereo not drawn) [Example 166, [3-(6-Methoxy-naphthalen-2-yl)-3-tetrazol-2-yl-propyl]-methyl-amine] | 28.9 | 88 | 4 | 70 | – | – | – | – | – | –
CNCCC(c1ccc2cc(OC)ccc2c1)n1nnc(C)n1 (stereo not drawn) [Example 167, [3-(6-Methoxy-naphthalen-2-yl)-3-(5-methyl-tetrazol-2-yl)-propyl]-methyl-amine] | 17.9 | 82 | 3 | 84 | – | 52.1 | – | – | – | 56.9
CNCC[C@@H](c1ccc2ccccc2c1)n1nnc(C)n1 [Example 188, (3S)-Methyl-[3-(5-methyl-tetrazol-2-yl)-3-naphthalen-2-yl-propyl]-amine] | 36.7 | 82 | 7 | 79 | 70.7 | 39.5 | – | – | – | –
